Test systems include A549 NSCLC; COLO 205 colon; HCT-15 colon; HL-60(TB) leukemia; HOP-62 NSCLC; HOP-92 NSCLC; HT29 colon; IGROV1 ovarian; K-562 leukemia; MDA-MB-435; MDA-N; MOLT-4 leukemia; NCI-H226 lung; NCI-H460 lung; SN12C renal; SNB-19 CNS; SW-620 colon; T-47D breast; UACC-257 melanoma; UO-31 renal.
Test in all cases: inhibition of tumour cell growth, NCI panel, 48 h

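Five concentrations, 48 hours, 96-well plates. TGI marks complete inhibition of growth.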

In the case of `Cc1ccc(O)c(C2=CC(c3cccc(Br)c3)SC(N)=N2)c1` (stereo not given), the TGI in the assay on A549 NSCLC amounted to 88.3 µM; with COLO 205 colon, 34.6 µM; in the assay on HCT-15 colon, 32.8 µM; in the assay with HL-60(TB) leukemia, 75.1 µM; in the assay with HOP-62 NSCLC, 52 µM; with HOP-92 NSCLC, 60.4 µM. The TGI in the assay on HT29 colon is greater than 100 µM; in the assay with IGROV1 ovarian, 46.5 µM; in the assay on K-562 leukemia it was 83.2 µM; with MDA-MB-435 it was 37.2 µM; in the assay with MDA-N it was 50.1 µM; in the assay on MOLT-4 leukemia it was 63.4 µM. Moreover, the TGI in the assay on NCI-H226 lung was 71.5 µM; in the assay on NCI-H460 lung, 49.8 µM; in the assay on SN12C renal, 40.7 µM; in the assay with SNB-19 CNS it was 32.4 µM; in the assay on SW-620 colon it was greater than 100 µM; in the assay on T-47D breast, 87.9 µM. Moreover, the results for the TGI in the assay with UACC-257 melanoma and with UO-31 renal were 41.3 µM and 65.3 µM, respectively.
For `Cc1ccc(S(=O)(=O)N/N=C2/CC3CCC4CC2CC34)cc1` (stereo not given), the TGI with A549 NSCLC, with COLO 205 colon, in the assay with HCT-15 colon, in the assay with HL-60(TB) leukemia, with HOP-62 NSCLC and in the assay on HOP-92 NSCLC was greater than 100 µM throughout. Besides, the TGI with HT29 colon, with IGROV1 ovarian, in the assay on K-562 leukemia, in the assay on MDA-MB-435, in the assay with MDA-N and with MOLT-4 leukemia was greater than 100 µM throughout. In addition, the TGI in the assay on NCI-H226 lung, in the assay with NCI-H460 lung, with SN12C renal, in the assay on SNB-19 CNS, in the assay on SW-620 colon and in the assay on T-47D breast was greater than 100 µM in each case. In addition, the TGI in the assay with UACC-257 melanoma and with UO-31 renal was greater than 100 µM each time.
For `O=C1CCCCC/C1=C\c1ccccc1`, the TGI in the assay with A549 NSCLC, with COLO 205 colon, in the assay on HCT-15 colon, in the assay with HL-60(TB) leukemia, with HOP-62 NSCLC and with HOP-92 NSCLC was greater than 100 µM in each case. The TGI in the assay with HT29 colon, in the assay on IGROV1 ovarian, in the assay on K-562 leukemia, in the assay with MDA-MB-435, in the assay on MDA-N and in the assay with MOLT-4 leukemia was greater than 100 µM throughout. Further, the TGI with NCI-H226 lung, in the assay with NCI-H460 lung, in the assay on SN12C renal, with SNB-19 CNS, with SW-620 colon and in the assay with T-47D breast was greater than 100 µM throughout. Further, the TGI with UACC-257 melanoma and with UO-31 renal was greater than 100 µM in each case.
Turning to `Cc1cc(O)c(/C=N/C(=S)Nc2ccccc2)c(=O)o1`, the TGI in the assay with A549 NSCLC, in the assay on COLO 205 colon, with HCT-15 colon, with HL-60(TB) leukemia, in the assay on HOP-62 NSCLC and in the assay with HOP-92 NSCLC was greater than 100 µM in each case. The TGI with HT29 colon, in the assay with IGROV1 ovarian, in the assay with K-562 leukemia, in the assay on MDA-MB-435, in the assay on MDA-N and in the assay on MOLT-4 leukemia was greater than 100 µM throughout. The TGI in the assay on NCI-H226 lung, in the assay with NCI-H460 lung, in the assay with SN12C renal, in the assay on SNB-19 CNS, in the assay on SW-620 colon and in the assay with T-47D breast was greater than 100 µM in each case. Besides, the TGI in the assay on UACC-257 melanoma and in the assay on UO-31 renal was greater than 100 µM in each case.
For the molecule `CCOC(=O)CN1CC(C2=C(O)CN(CC(=O)OCC)C2=O)=CC1=O`, the TGI in the assay with A549 NSCLC, with COLO 205 colon, with HCT-15 colon, with HL-60(TB) leukemia, with HOP-62 NSCLC and in the assay with HOP-92 NSCLC was greater than 100 µM each time. The TGI in the assay on HT29 colon, with IGROV1 ovarian, in the assay on K-562 leukemia, in the assay with MDA-MB-435, in the assay on MDA-N and in the assay on MOLT-4 leukemia was greater than 100 µM each time. For the same molecule, the TGI in the assay on NCI-H226 lung, in the assay with NCI-H460 lung, in the assay on SN12C renal, in the assay on SNB-19 CNS, in the assay on SW-620 colon and in the assay with T-47D breast was greater than 100 µM each time. Also, the TGI in the assay on UACC-257 melanoma and with UO-31 renal was greater than 100 µM in each case.
On to `COc1cc(NC=C2C(=O)OC(C)(C)OC2=O)c(OC)c(C)c1OC`, for which the TGI in the assay on A549 NSCLC, in the assay with COLO 205 colon, with HCT-15 colon, in the assay on HL-60(TB) leukemia, in the assay with HOP-62 NSCLC and in the assay with HOP-92 NSCLC was greater than 100 µM each time. For the same molecule, the TGI with HT29 colon, with IGROV1 ovarian, with K-562 leukemia, with MDA-MB-435, with MDA-N and in the assay on MOLT-4 leukemia was greater than 100 µM in each case. Moreover, the TGI with NCI-H226 lung, in the assay with NCI-H460 lung, with SN12C renal, with SNB-19 CNS, in the assay with SW-620 colon and in the assay on T-47D breast was greater than 100 µM each time. The TGI in the assay on UACC-257 melanoma and with UO-31 renal was greater than 100 µM in each case.
For the molecule `Nc1c2c(nc3ccccc13)-c1ccccc1NCCC2`, the TGI was greater than 100 µM in the assay on A549 NSCLC; 35.2 µM in the assay on COLO 205 colon; greater than 100 µM with HCT-15 colon; 47.5 µM in the assay with HL-60(TB) leukemia; 54.2 µM with HOP-62 NSCLC; 65.6 µM in the assay on HOP-92 NSCLC. Besides, the TGI was 83.9 µM with HT29 colon; greater than 100 µM in the assay on IGROV1 ovarian; greater than 100 µM in the assay with K-562 leukemia; 58.2 µM with MDA-MB-435; 39 µM in the assay with MDA-N; greater than 100 µM in the assay with MOLT-4 leukemia. For the same molecule, the TGI in the assay with NCI-H226 lung was greater than 100 µM; in the assay with NCI-H460 lung, 38 µM; in the assay on SN12C renal, greater than 100 µM; with SNB-19 CNS it was greater than 100 µM; in the assay on SW-620 colon it was greater than 100 µM; in the assay on T-47D breast it was 77.9 µM. Also, the figures for the TGI with UACC-257 melanoma and with UO-31 renal were 28.3 µM and 88.3 µM, respectively.
With `O=S(=O)(/N=C(\NO)Nc1ccc(Cl)cc1)c1ccccc1`, the TGI was greater than 100 µM in the assay on A549 NSCLC; 51.5 µM in the assay on COLO 205 colon; greater than 100 µM in the assay with HCT-15 colon; greater than 33.7 µM in the assay on HL-60(TB) leukemia; greater than 100 µM with HOP-62 NSCLC; 22.4 µM in the assay on HOP-92 NSCLC. In addition, the TGI in the assay on HT29 colon is 41.3 µM; in the assay with IGROV1 ovarian, 62.4 µM; in the assay with K-562 leukemia it was greater than 100 µM; in the assay with MDA-MB-435, greater than 64 µM; with MDA-N, 27.7 µM; in the assay on MOLT-4 leukemia it was greater than 56.6 µM. Moreover, the TGI was greater than 100 µM in the assay with NCI-H226 lung; greater than 59.3 µM in the assay on NCI-H460 lung; 35.2 µM with SN12C renal; greater than 89.3 µM with SNB-19 CNS; greater than 100 µM in the assay with SW-620 colon; greater than 83.3 µM in the assay with T-47D breast. Also, the results for the TGI in the assay with UACC-257 melanoma and in the assay with UO-31 renal were 26.6 µM and 27.5 µM, respectively.

The values above are taken from PubChem BioAssay (NCI).
